Columns and labels:
[1] = Solubility of annealed thin film in solvents; type: physicochemical; settings: chloroform, THF, toluene, etc. at 25° C.; film after annealing 30 min at 150° C.
Method: Each (5 mg) of Ex. 1 compound and Ex. 2 compound synthesized in Synthesis Examples 1 and 2 was dissolved in THF, so that the concentration of the compound became 0.1% by mass, and the mixture was filtrated using a 0.2 μm-filter to prepare a solution. Onto a N-type silicon substrate having a 300 nm-thick thermally-oxidized film, which had been soaked in concentrated sulfuric acid for 24 hours, 100 μL of the prepared solution was added dropwise with a pipette, and a […] liquid droplet of the prepared solution was jetted 50 times using an inkjet apparatus (head; product of Ricoh Printing Systems, Ltd.). The thus-treated substrate was covered with a petri dish and left to stand still until the solvent was evaporated to thereby form a thin film. […] Next, the thin film was subjected to annealing for 30 min at 150° C. in an argon atmosphere.
After annealing, a plurality of colored domains were observed under the polarization microscope, and it was confirmed that a smooth and crystalline film was obtained. These films were obtained because each of Ex. 1 compound and Ex. 2 compound serving as precursors lost an ester group (i.e., a soluble group) and converted to Compound 24 having stronger intermolecular interaction, and became crystalline in the film. The thin film was insoluble in chloroform, THF, toluene, etc. at 25° C.

[2] = Evaluation of dissolvability (saturated solution in organic solvent); type: physicochemical; settings: reflux 10 min, cooled to room temperature, left 16 hours, filtrated
Method: Each of the compounds obtained in Examples 1, 3, 5, 6, 7, 8, 9, 10, 11 and 12 and the corresponding specific compounds (24) to (33) was added to toluene, THF, anisole or chloroform (each: […]) until insoluble matter was found. The resultant mixture was stirred for 10 min under reflux of the solvent and cooled to room temperature, followed by stirring for 1 hour. After the mixture had been left to stand still for 16 hours, the supernatant was filtrated with a 0.2 μm PTFE filter to obtain a saturated solution. The obtained solution was dried under reduced pressure to calculate the dissolvability of the compound to each solvent.
The evaluation criteria in Table 1 are as follows.
A: 0.5% by mass≦Dissolvability B: 0.1% by mass≦Dissolvability<0.5% by mass C: 0.005% by mass≦Dissolvability<0.1% by mass D: Dissolvability<0.005% by mass

solubility of thin film [1]	Dissolvability, solvent THF [2]	Dissolvability, solvent Toluene [2]	SMILES	Dissolvability, solvent Anisole [2]
insoluble	D (Dissolvability<0.005% by mass)	D (Dissolvability<0.005% by mass)	c1ccc2cc(-c3cc4sc(-c5ccc6ccccc6c5)cc4s3)ccc2c1 [Compound (24)]	D (Dissolvability<0.005% by mass)
–	D (Dissolvability<0.005% by mass)	D (Dissolvability<0.005% by mass)	c1ccc2c(c1)ccc1c3cc4sc5c6ccccc6ccc5c4cc3sc21 [Compound (25)]	D (Dissolvability<0.005% by mass)
–	D (Dissolvability<0.005% by mass)	D (Dissolvability<0.005% by mass)	c1cc2ccc3cc4ccc5cc6c(ccc7cc8ccc9cccc%10ccc(c76)c8c9%10)cc5c4c4ccc(c1)c2c34 [Compound (28)]	D (Dissolvability<0.005% by mass)
–	D (Dissolvability<0.005% by mass)	D (Dissolvability<0.005% by mass)	C(#Cc1cc2sc3cc4c(cc3c2s1)sc1cc(C#Cc2ccc3ccccc3c2)sc14)c1ccc2ccccc2c1 [Compound (30)]	D (Dissolvability<0.005% by mass)
–	A (0.5% by mass≦Dissolvability)	A (0.5% by mass≦Dissolvability)	COC1CC=Cc2ccc(-c3cc4sc(-c5ccc6c(c5)C(OC)CC=C6)cc4s3)cc21 (stereo not shown) [Ex. 3 compound]	B (0.1% by mass≦Dissolvability<0.5% by mass)
–	A (0.5% by mass≦Dissolvability)	A (0.5% by mass≦Dissolvability)	CC(C)(C)C(=O)OC1Cc2cc3c(cc2-c2ccc4ccccc4c21)CC(OC(=O)C(C)(C)C)c1c-3ccc2ccccc12 (stereo not shown) [Ex. 8 compound]	A (0.5% by mass≦Dissolvability)
–	A (0.5% by mass≦Dissolvability)	A (0.5% by mass≦Dissolvability)	CCCCCC(=O)OC1Cc2cc(C#Cc3ccccc3)ccc2-c2ccc(C#Cc3ccccc3)cc21 (stereo not shown) [Ex. 12 compound]	A (0.5% by mass≦Dissolvability)

SMILES	solubility of thin film [1]	Dissolvability, solvent THF [2]	Dissolvability, solvent Toluene [2]	Dissolvability, solvent Anisole [2]
c1ccc2c(c1)ccc1cc3ccc4c5c(ccc6ccccc65)cc5ccc(c12)c3c54 [Compound (26)]	–	D (Dissolvability<0.005% by mass)	D (Dissolvability<0.005% by mass)	D (Dissolvability<0.005% by mass)
c1ccc2c(c1)ccc1c3cc4ccc5c6ccccc6ccc5c4cc3ccc21 [Compound (27)]	–	D (Dissolvability<0.005% by mass)	D (Dissolvability<0.005% by mass)	D (Dissolvability<0.005% by mass)
c1ccc2cc3c(ccc4c3ccc3c4ccc4c5ccc6cc7ccccc7cc6c5ccc43)cc2c1 [Compound (29)]	–	D (Dissolvability<0.005% by mass)	D (Dissolvability<0.005% by mass)	D (Dissolvability<0.005% by mass)
C(#Cc1ccc2c(ccc3cc(C#Cc4ccccc4)ccc32)c1)c1ccccc1 [Compound (31)]	–	B (0.1% by mass≦Dissolvability<0.5% by mass)	C (0.005% by mass≦Dissolvability<0.1% by mass)	C (0.005% by mass≦Dissolvability<0.1% by mass)
CCCCC(CC)C(=O)OC1Cc2ccccc2-c2c1cc1ccc3c4c(cc5ccc2c1c53)C(OC(=O)C(CC)CCCC)Cc1ccccc1-4 (stereo not shown) [Ex. 7 compound]	–	A (0.5% by mass≦Dissolvability)	B (0.1% by mass≦Dissolvability<0.5% by mass)	B (0.1% by mass≦Dissolvability<0.5% by mass)
CCCCCC(=O)OC1CC=Cc2cc3c(ccc4c3ccc3c4ccc4c5ccc6cc7c(cc6c5ccc43)C=CCC7OC(=O)CCCCC)cc21 (stereo not shown) [Ex. 10 compound]	–	A (0.5% by mass≦Dissolvability)	B (0.1% by mass≦Dissolvability<0.5% by mass)	B (0.1% by mass≦Dissolvability<0.5% by mass)

Source: patent US20130095605A1, “LEAVING SUBSTITUENT-CONTAINING COMPOUND, ORGANIC SEMICONDUCTOR MATERIAL FORMED THEREFROM, ORGANIC ELECTRONIC DEVICE, ORGANIC THIN-FILM TRANSISTOR AND DISPLAY DEVICE USING THE ORGANIC SEMICONDUCTOR MATERIAL, METHOD FOR PRODUCING FILM-LIKE PRODUCT, PI-ELECTRON CONJUGATED COMPOUND AND METHOD FOR …” (RICOH COMPANY, LTD., priority 2010, published 2013)
